Reference: US20170327598A1, “SINGLE DOMAIN ANTIBODIES DIRECTED AGAINST INTRACELLULAR ANTIGENS” (SINGH MOLECULAR MEDICINE, LLC, priority 2014, published 2017)
Where “and” joins values, the source holds several entries; their conditions need not be identical. Identical values can stand only once.

What was measured:
[1] = test system: VEGF-A production in ARPE-19 cells; assay: VEGF-A ELISA in ARPE-19 retinal cells, Experiment 2;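 on all read-outs here: confluent ARPE-19 cells in 96-well plates, VEGF-A in culture supernatant quantified by ELISA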; type: cell-based, human; details: for Mean (pg VEGF-A per mL): mean of Adj. Result, Wells 1-3; for Mean (pg VEGF-A per μg protein): mean of Wells 1-3; for Mean (pg VEGF-A per μg protein) / % Control: Experiment 2; for % Control: normalized for protein; for Mean Result (pg VEGF-A per mL) / pg VEGF-A per μg protein / Adj. Result (pg VEGF-A per mL): per well; for Adj. Result (pg VEGF-A per mL): adjusted for dilution; for Result (pg VEGF-A per mL): single reads; for pg VEGF-A per mL: based on collecting 0.1 ml of supernatant
STAT5 = assay: Biacore 3000, sdAb immobilized, STAT5 analyte (Example 23); type: binding

## Anti-STAT3 VHH13: anti-STAT3 single domain antibody, SEQ ID NO:3; bacterially produced form referred to as SBT-100
[1]; 0.1 μg/well, 48 Hr
  Mean (pg VEGF-A per mL): 966 pg VEGF-A per mL
  Mean (pg VEGF-A per μg protein): 14.067 pg VEGF-A per μg protein
  % Control: 107.4%
  Mean Result (pg VEGF-A per mL): 189.30 pg VEGF-A per mL and 170.27 pg VEGF-A per mL and 220.04 pg VEGF-A per mL
  pg VEGF-A per μg protein: 14.1 pg VEGF-A per μg protein and 13.1 pg VEGF-A per μg protein and 15.1 pg VEGF-A per μg protein
  Adj. Result (pg VEGF-A per mL): 946.50 pg VEGF-A per mL and 851.33 pg VEGF-A per mL and 1100.22 pg VEGF-A per mL
  Result (pg VEGF-A per mL): 195.75 pg VEGF-A per mL and 182.85 pg VEGF-A per mL and 173.80 pg VEGF-A per mL and 166.73 pg VEGF-A per mL and 220.87 pg VEGF-A per mL and 219.22 pg VEGF-A per mL
[1]; 1 μg/well, 12 Hr
  % Negative Control: 110.5%
  pg VEGF-A per mL: 12.9 pg VEGF-A per mL and 13.7 pg VEGF-A per mL and 16.1 pg VEGF-A per mL
  Mean (pg VEGF-A per mL): 142.5 pg VEGF-A per mL
  Mean (pg VEGF-A per μg protein): 2.273 pg VEGF-A per μg protein
  % Control: 120.3%
  Mean Result (pg VEGF-A per mL): 25.82 pg VEGF-A per mL and 27.43 pg VEGF-A per mL and 32.23 pg VEGF-A per mL
  pg VEGF-A per μg protein: 2 pg VEGF-A per μg protein and 2.2 pg VEGF-A per μg protein and 2.7 pg VEGF-A per μg protein
  Adj. Result (pg VEGF-A per mL): 129.12 pg VEGF-A per mL and 137.14 pg VEGF-A per mL and 161.16 pg VEGF-A per mL
  Result (pg VEGF-A per mL): 26.74 pg VEGF-A per mL and 24.91 pg VEGF-A per mL and 26.62 pg VEGF-A per mL and 28.24 pg VEGF-A per mL and 33.18 pg VEGF-A per mL and 31.29 pg VEGF-A per mL
[1]; 1 μg/well, 24 Hr
  % Negative Control: 106.8%
  pg VEGF-A per mL: 37.3 pg VEGF-A per mL and 31.2 pg VEGF-A per mL and 29.9 pg VEGF-A per mL
  Mean (pg VEGF-A per mL): 327.9 pg VEGF-A per mL
  Mean (pg VEGF-A per μg protein): 4.084 pg VEGF-A per μg protein
  Mean Result (pg VEGF-A per mL): 74.61 pg VEGF-A per mL and 62.42 pg VEGF-A per mL and 59.71 pg VEGF-A per mL
  Adj. Result (pg VEGF-A per mL): 373.06 pg VEGF-A per mL and 312.11 pg VEGF-A per mL and 298.74 pg VEGF-A per mL
  Result (pg VEGF-A per mL): 78.44 pg VEGF-A per mL and 70.78 pg VEGF-A per mL and 68.61 pg VEGF-A per mL and 56.23 pg VEGF-A per mL and 63.71 pg VEGF-A per mL and 55.71 pg VEGF-A per mL
[1]; 1 μg/well, 48 Hr
  pg VEGF-A per mL: 87.6 pg VEGF-A per mL and 101.9 pg VEGF-A per mL and 111.9 pg VEGF-A per mL
  Mean (pg VEGF-A per mL): 1004.7 pg VEGF-A per mL
  Mean (pg VEGF-A per μg protein): 13.796 pg VEGF-A per μg protein
  % Control: 105.4%
  Mean Result (pg VEGF-A per mL): 175.22 pg VEGF-A per mL and 203.89 pg VEGF-A per mL and 223.71 pg VEGF-A per mL
  pg VEGF-A per μg protein: 12.4 pg VEGF-A per μg protein and 13.6 pg VEGF-A per μg protein and 15.3 pg VEGF-A per μg protein
  Adj. Result (pg VEGF-A per mL): 876.08 pg VEGF-A per mL and 1019.44 pg VEGF-A per mL and 1118.55 pg VEGF-A per mL
  Result (pg VEGF-A per mL): 168.84 pg VEGF-A per mL and 181.59 pg VEGF-A per mL and 195.75 pg VEGF-A per mL and 212.03 pg VEGF-A per mL and 225.75 pg VEGF-A per mL and 221.67 pg VEGF-A per mL
[1]; 10 μg/well, 12 Hr
  % Negative Control: 107.8%
  pg VEGF-A per mL: 15.2 pg VEGF-A per mL and 12.2 pg VEGF-A per mL and 14.3 pg VEGF-A per mL
  Mean (pg VEGF-A per mL): 139.00 pg VEGF-A per mL
  Mean (pg VEGF-A per μg protein): 2.148 pg VEGF-A per μg protein
  % Control: 113.7%
  Mean Result (pg VEGF-A per mL): 30.43 pg VEGF-A per mL and 24.41 pg VEGF-A per mL and 28.58 pg VEGF-A per mL
  pg VEGF-A per μg protein: 2.5 pg VEGF-A per μg protein and 1.9 pg VEGF-A per μg protein and 2 pg VEGF-A per μg protein
  Adj. Result (pg VEGF-A per mL): 152.14 pg VEGF-A per mL and 122.07 pg VEGF-A per mL and 142.92 pg VEGF-A per mL
  Result (pg VEGF-A per mL): 29.66 pg VEGF-A per mL and 31.2 pg VEGF-A per mL and 24.52 pg VEGF-A per mL and 24.31 pg VEGF-A per mL and 27.98 pg VEGF-A per mL and 29.18 pg VEGF-A per mL
[1]; 10 μg/well, 24 Hr
  % Negative Control: 1142%
  pg VEGF-A per mL: 28 pg VEGF-A per mL and 34.8 pg VEGF-A per mL and 42.4 pg VEGF-A per mL
  Mean (pg VEGF-A per mL): 350.7 pg VEGF-A per mL
  Mean (pg VEGF-A per μg protein): 5.290 pg VEGF-A per μg protein
  % Control: 119.8%
  Mean Result (pg VEGF-A per mL): 55.95 pg VEGF-A per mL and 69.61 pg VEGF-A per mL and 84.84 pg VEGF-A per mL
  pg VEGF-A per μg protein: 4.4 pg VEGF-A per μg protein and 5.4 pg VEGF-A per μg protein and 6.1 pg VEGF-A per μg protein
  Adj. Result (pg VEGF-A per mL): 279.74 pg VEGF-A per mL and 348.06 pg VEGF-A per mL and 424.20 pg VEGF-A per mL
  Result (pg VEGF-A per mL): 57.85 pg VEGF-A per mL and 54.04 pg VEGF-A per mL and 72.69 pg VEGF-A per mL and 66.53 pg VEGF-A per mL and 84.97 pg VEGF-A per mL and 84.71 pg VEGF-A per mL
[1]; 10 μg/well, 48 Hr
  % Negative Control: 99.3%
  pg VEGF-A per mL: 83.7 pg VEGF-A per mL and 95.6 pg VEGF-A per mL and 98.3 pg VEGF-A per mL
  Mean (pg VEGF-A per mL): 925.1 pg VEGF-A per mL
  Mean (pg VEGF-A per μg protein): 13.696 pg VEGF-A per μg protein
  % Control: 104.6%
  Mean Result (pg VEGF-A per mL): 191.17 pg VEGF-A per mL and 196.56 pg VEGF-A per mL and 167.34 pg VEGF-A per mL
  pg VEGF-A per μg protein: 11.8 pg VEGF-A per μg protein and 14 pg VEGF-A per μg protein and 15.3 pg VEGF-A per μg protein
  Adj. Result (pg VEGF-A per mL): 955.85 pg VEGF-A per mL and 982.81 pg VEGF-A per mL and 836.69 pg VEGF-A per mL
  Result (pg VEGF-A per mL): 194.18 pg VEGF-A per mL and 188.16 pg VEGF-A per mL and 194.77 pg VEGF-A per mL and 198.36 pg VEGF-A per mL and 158.85 pg VEGF-A per mL and 175.83 pg VEGF-A per mL
[1]; 100 μg/mL, 12 hour treatment
  VEGF-A as % of control: 20.1%
[1]; 100 μg/mL, 24 hour treatment
  VEGF-A as % of control: 7.5%
[1]; 100 μg/mL, 48 hours
  pg VEGF-A/m protein as % of the negative control: 11%
[1]; 100 μg/well, 12 Hr
  % Negative Control: 18.5%
  pg VEGF-A per mL: 2.4 pg VEGF-A per mL and 2.3 pg VEGF-A per mL
  Mean (pg VEGF-A per mL): 23.8 pg VEGF-A per mL
  Mean (pg VEGF-A per μg protein): 0.4 pg VEGF-A per μg protein
  Mean Result (pg VEGF-A per mL): 4.86 pg VEGF-A per mL and 4.58 pg VEGF-A per mL
  pg VEGF-A per μg protein: 0.4 pg VEGF-A per μg protein
  Adj. Result (pg VEGF-A per mL): 24.27 pg VEGF-A per mL and 22.91 pg VEGF-A per mL
  Result (pg VEGF-A per mL): 5.09 pg VEGF-A per mL and 4.62 pg VEGF-A per mL and 5.3 pg VEGF-A per mL and 4.41 pg VEGF-A per mL and 4.83 pg VEGF-A per mL and 4.33 pg VEGF-A per mL
[1]; 100 μg/well, 24 Hr
  % Negative Control: 6.3%
  Mean (pg VEGF-A per mL): 19.2 pg VEGF-A per mL
  Mean (pg VEGF-A per μg protein): 0.329 pg VEGF-A per μg protein
  % Control: 7.5%
  pg VEGF-A per μg protein: 0.5 pg VEGF-A per μg protein and 0.3 pg VEGF-A per μg protein
[1]; 100 μg/well, 48 Hr
  % Negative Control: 3.7%
  pg VEGF-A per mL: 3.9 pg VEGF-A per mL
  Mean (pg VEGF-A per mL): 35.6 pg VEGF-A per mL
  Mean (pg VEGF-A per μg protein): 1.458 pg VEGF-A per μg protein
  % Control: 11.1%
  Mean Result (pg VEGF-A per mL): 5.85 pg VEGF-A per mL and 7.78 pg VEGF-A per mL and 7.76 pg VEGF-A per mL
  pg VEGF-A per μg protein: 1.4 pg VEGF-A per μg protein and 1.6 pg VEGF-A per μg protein
  Adj. Result (pg VEGF-A per mL): 29.23 pg VEGF-A per mL and 38.88 pg VEGF-A per mL and 38.78 pg VEGF-A per mL
  Result (pg VEGF-A per mL): 8.03 pg VEGF-A per mL and 5.86 pg VEGF-A per mL and 5.83 pg VEGF-A per mL and 7.83 pg VEGF-A per mL and 7.72 pg VEGF-A per mL and 7.49 pg VEGF-A per mL
STAT5; Biacore, sdAb immobilized
  binding of STAT5: bound
STAT5; sdAb immobilized (STAT5-31 440 RU, anti-KRAS 140 RU, VHH13 1000 RU), STAT5 protein analyte 500 nM
  Result: Binding
